For orientation: Cmax means the maximum level reached in the sampled fluid or tissue. Usually Tmax stands for the time at which the peak concentration occurs. By clearance is commonly meant the volume of plasma or blood freed of the substance per unit of time.

Read-outs that look alike come from different tables or passages of the source. Marks after values point to notes of the source that are not given here.

For data set [1], the system named is MCF-7 cells. Put plainly: In-vitro metabolism of the drugs in MCF-7 cells (HPLC-MS). As to conditions: MCF-7, 10 μmol·L^−1, 12 h, 37°C. Type of data set: in vitro ADME, human. How it is done:
Breast cancer cells (MCF-7) and H9c2 heart-derived myoblasts were seeded in 100-mm Petri dishes (1,000,000 cells/dish) for 24 h/37°C. Freshly prepared stock solutions of Dp44mT and DpC in DMSO (Sigma-Aldrich, Germany) were diluted in culture medium to the required working concentration.
The cells were incubated for 12 h (37°C) with either Dp44mT or DpC at a concentration of 10 μmol·L^−1. After this incubation, the cells were harvested, washed twice with ice-cold PBS buffer, centrifuged (790 x g) and precipitated with acetonitrile (200 μL/10^6 cells) prior to the analysis. The overlaying medium was also analyzed to search for possible metabolites. […] All samples were analyzed using HPLC-MS as described below in the Section: HPLC-MS method to identify metabolites of the drugs.
To search for the metabolites, plasma was precipitated with methanol or acetonitrile (plasma/solvent ratio – 1:3, v/v), treated using solid phase extraction (SPE; Discovery DSC-PH, Supelco, PA, U.S.A.), or liquid-liquid extraction with various solvents (ethyl acetate, toluene, dichloromethane). […] These samples were then analyzed using HPLC-MS with ion trap mass analyzer implementing the settings described previously with minor modifications (for details of the analyses see Supplementary Material, part 2.1). […]

On the set-up of data set [2]: method as in PMID 21658021. As to conditions: cited from earlier work.
Data set [3] can be described thus: Pharmacokinetics after single i.v. administration to rats (plasma, UHPLC-MS/MS). Type of data set: in vivo, Wistar rats. The note with it: for Cmax / Tmax / AUC(0-inf) / clearance / half-life / AUC(0-t) / Vd: male, Wistar, rat, plasma, iv; for Cmax / Tmax / AUC(0-inf) / clearance / half-life / AUC(0-t): 2 mg/kg; for AUC(0-inf): read-out: AUC (zero to infinity); for AUC(0-t): read-out: AUC0-tlast; for Vd: read-out: Vz (apparent volume of distribution); for mean plasma concentration at 6 h relative to Cmax: i.v. 2 mg·kg^−1, 6 h, DpC Group 1. How it is done: Male Wistar rats (230-310 g; n = 22) obtained from Velaz (Czech Republic) were kept in an air-conditioned room under a 12 h light-dark cycle, constant temperature and humidity and had free access to water and a standard laboratory pellet diet for rodents. All animal handling and procedures were approved and supervised by the Animal Welfare Body of the Faculty of Medicine in Hradec Kralove, Charles University in Prague. The investigation conformed to the Guide for the Care and Use of Laboratory Animals.
The rats were anaesthetized with pentobarbital (30 mg^.kg^−1; i.p.) and then the vena jugularis and arteria carotis were prepared for drug administration and blood sample collection, respectively. Both Dp44mT and DpC were dissolved in a mixture of saline, PEG 300 and ethanol (5:4:1, v/v/v) and administered to rats at a dose of 2 mg^.kg^−1, as a slow i.v. bolus. Blood was then collected into EDTA-containing tubes, immediately centrifuged and the plasma kept at −80°C until being analyzed. The blood withdrawn from animals was compensated with an appropriate volume of saline. The animals were sacrificed by pentobarbital overdose.
Initially, for both compounds, rats (n = 2, in each group) were used for the in-vivo investigation of the thiosemicarbazone metabolites and also the preparation of the quantitative analytical method. For the full PK study, 6 rats were used for each compound (group 1) and the blood was sampled at 4, 10, 30, 60, 120, 240 and 360 min post-administration.
Due to the markedly slower elimination of DpC, an additional in-vivo study was performed to appropriately describe the elimination phase of this drug. The conscious rats (n = 8, group 2) were administered DpC (2 mg^.kg^−1) via slow i.v. bolus to the vena saphena. Blood was sampled from the retro-orbital plexus under light ether anesthesia during the following time intervals: 120, 360, 600, 1440 and 1800 min. Plasma samples were treated and analyzed using the analytical methods described below in the Section: UHPLC-MS/MS methods for quantitative assay of the drugs and their metabolites.
Standard non-compartmental analysis was performed implementing Kinetica software (version 4.0, Thermo Fisher Scientific Inc., MA, U.S.A.). […] Maximum concentration (Cmax) and the time to maximum concentration (Tmax) were determined directly from the geometric mean vs. time profiles and from individual profiles. The area under the mean plasma concentration–time curve from zero up to the last sampling interval (AUC0-tlast) was calculated by a combination of the linear and log-linear trapezoidal methods. The area under the mean plasma concentration–time curve from zero up to infinity (AUC) was determined as the sum of the AUC0–tlast and of the extrapolated part (i.e., the ratio of the concentration predicted at the time interval of tlast and the terminal rate constant, λz). The λz was estimated by linear regression of the log transformed concentrations in the terminal part of the curve.
Population pharmacokinetic modeling was performed using non-linear, mixed effect modeling as implemented in Monolix, version 4 (http://wfn.software.monolix.org). Pharmacokinetic parameters were estimated by computing the maximum likelihood estimator of the parameters without any approximation of the model (no linearization). This was performed using the Stochastic Approximation Expectation Maximization (SAEM) algorithm combined with a Markov chain Monte Carlo procedure. The between-animal variability in model parameters were ascribed to an exponential model and a proportional model was used to describe the residual variability. The goodness-of-fit was assessed by using several diagnostic plots (observed and predicted concentrations vs. time; observed concentrations vs. population predictions; weighted residuals vs. time; and weighted residuals vs. predictions). Individual parameter values were obtained as empirical Bayes estimates. […]

Data set [4] has as its system oxyhemoglobin in red blood cells. Also noted: method as in PMID 22508546. As to conditions: cited from earlier work.
The mark [5] stands for this setting: rats, i.v. 2 mg·kg^−1, individual values, mean ± S.D., DpC Group 1 only, read-out: Cmax (observed, individual).
Setting [6] is: rats, i.v. 2 mg·kg^−1, individual values, mean ± S.D., DpC Group 1 only, read-out: Tmax (observed, individual) (converted).
Where [7] appears, read: rats, i.v. 2 mg·kg^−1, non-compartmental analysis of geometric mean plasma curves, Dp4mT = metabolite after Dp44mT dosing, read-out: Cmax.
The mark [8] stands for this setting: rats, i.v. 2 mg·kg^−1, non-compartmental analysis, Dp4mT = metabolite after Dp44mT dosing, read-out: Tmax (converted).
The mark [9] stands for this setting: rats, i.v. 2 mg·kg^−1, non-compartmental analysis.
[10] abbreviates: rats, i.v. 2 mg·kg^−1, non-compartmental analysis, read-out: CL (total plasma clearance) (converted).
Setting [11] is: rats, i.v. 2 mg·kg^−1, non-compartmental analysis, read-out: t1/2 (elimination half-life) (converted).
Setting [12] is: rats, i.v. 2 mg·kg^−1, two-compartment population model, Bayesian estimates, mean ± S.D.
[13] abbreviates: rats, i.v. 2 mg·kg^−1, two-compartment population model, Bayesian estimates, mean ± S.D., read-out: CL (total clearance) (converted).
Where [14] appears, read: rats, i.v. 2 mg·kg^−1, two-compartment population model, Bayesian estimates, mean ± S.D., read-out: t1/2alpha (initial distribution half-life).
Setting [15] is: rats, i.v. 2 mg·kg^−1, two-compartment population model, Bayesian estimates, mean ± S.D., read-out: t1/2beta (elimination half-life) (converted).
[16] abbreviates: rats, i.v., population analysis.

As for `CN(C)C(=S)NN=C(c1ccccn1)c1ccccn1` [Dp44mT, di(2-pyridyl)ketone 4,4-dimethyl-3-thiosemicarbazone], in data set [1], the “metabolism in cancer cells” value is listed as “do not undergo significant metabolism”. Besides, in data set [2], the “toxicity after oral administration” value is “toxic after oral administration”. For the same molecule, in data set [3] (setting [5]), the Cmax was 3.78 ± 1.33 µM. The Tmax in data set [3] (setting [6]) is 5 min. The Cmax in data set [3] (setting [7]) stood at 2.55 µM. Besides, in data set [3] (setting [8]), the Tmax was 4 min. Moreover, in data set [3] (setting [9]), the AUC(0-inf) turned out to be 1.46 µM·h, the Vd stood at 15 L/kg, the “lamdaz (terminal rate constant of elimination)” value was 0.318 h⁻¹ and the “mean extrapolated AUC” value is reported as 8%. Moreover, the clearance in data set [3] (setting [10]) was 79.7 mL/min/kg. The half-life in data set [3] (setting [11]) was 132 min. Moreover, in data set [3] (setting [12]), the AUC(0-inf) was 1.66 ± 0.25 µM·h, the “Q (intercompartmental clearance)” value is 5.11 ± 0.66 L/h/kg, the “Vc (volume of central compartment)” value is 1.02 ± 0.12 L/kg and the “Vp (volume of peripheral compartment)” value was 5.44 ± 1.70 L/kg. Also, the clearance in data set [3] (setting [13]) is 71.8 mL/min/kg. For the same molecule, in data set [3] (setting [14]), the half-life is 4.3 ± 0.54 min. Moreover, in data set [3] (setting [15]), the half-life was 102 ± 18 min. The AUC(0-t) in data set [3] was 1.34 µM·h. Moreover, the “mean plasma concentration at 6 h relative to Cmax” value in data set [3] (rats) is “less than 2%”. Also, the total clearance in data set [3] (rats, i.v. 2 mg·kg^−1, range of both analyses) is reported as 4.3-4.8 L^.h^−1.kg^−1. In data set [3] (setting [16]), the “clearance, fold higher than DpC” value is recorded as 23 fold; the “dose-corrected total AUC, fold lower than DpC” value is reported as 28 fold; the “terminal half-life of elimination (t1/2β), fold shorter than DpC” value is given as 6.3 fold.
As for `CN(C(=S)NN=C(c1ccccn1)c1ccccn1)C1CCCCC1` [DpC, di(2-pyridyl)ketone 4-cyclohexyl-4-methyl-3-thiosemicarbazone], in data set [1], the “metabolism in cancer cells” value is given as “do not undergo significant metabolism”. Moreover, the “oxidation of oxyhemoglobin to methemoglobin” value in data set [4] is recorded as “does not induce oxidation of oxyhemoglobin to methemoglobin”. Further, in data set [3] (setting [5]), the Cmax is 5.57 ± 0.89 µM. Further, the Tmax in data set [3] (setting [6]) was 4 min. Also, the Cmax in data set [3] (setting [7]) is 5.51 µM. Besides, the Tmax in data set [3] (setting [8]) is 4 min. Besides, in data set [3] (setting [9]), the AUC(0-inf) was determined as 39.8 µM·h, the Vd stood at 2.77 L/kg, the “lamdaz (terminal rate constant of elimination)” value came out at 0.0515 h⁻¹ and the “mean extrapolated AUC” value is recorded as 19%. Also, the clearance in data set [3] (setting [10]) was 2.37 mL/min/kg. Moreover, the half-life in data set [3] (setting [11]) is 810 min. Besides, in data set [3] (setting [12]), the AUC(0-inf) is 37.2 ± 16 µM·h, the “Q (intercompartmental clearance)” value is given as 0.50 ± 0.11^b L·h^−1·kg^−1, the “Vc (volume of central compartment)” value is 1.05 ± 0.08 L/kg and the “Vp (volume of peripheral compartment)” value is given as 1.19 ± 0.68^a L·kg^−1. In addition, in data set [3] (setting [13]), the clearance was 3.1 mL/min/kg. Further, in data set [3] (setting [14]), the half-life is 40 ± 5 min. Besides, the half-life in data set [3] (setting [15]) was 642 ± 240 min. The AUC(0-t) in data set [3] worked out at 32.2 µM·h. In data set [3] (rats, i.v.), the “total exposure (AUC/dose), fold exceeding that of Dp44mT” value is on record as above 20 fold. The “mean plasma concentration at 6 h relative to Cmax” value in data set [3] (rats) is 21%. Besides, in data set [3] (rats, i.v., p<0.01), the “dose-corrected individual Cmax, higher than Dp44mT by” value stood at 80%.
